We go through 14 compounds from US20250034165A1, “COMPOUND CONTAINING CYCLOALKYL OR HALOALKYL” (CHIA TAI TIANQING PHARMACEUTICAL GROUP CO., LTD., priority 2021, published 2025).

Data set [1] concerns BAF3-EGFR (L858R/T790M/C797S) cells. Kind of data set: Inhibition of proliferation of BAF3-EGFR (L858R/T790M/C797S) cells, CCK-8. It counts as cell-based. The following applies: Ba/F3 EGFR, 72 h, read-out: BAF3(EGFR T790M L858R C797S) cell inhibitory activity IC50. Put shortly:
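BaF3 EGFR L858R/T790M/C797S cells seeded at 1.5×10^5 cells/mL in RPMI + 10% FBS, 37 °C, compound added after overnight, duplicates. Viability by CCK-8; % inhibition vs untreated and blank, IC50 by four-parameter fit.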

The subject of data set [2] is BAF3-EGFR (del19/T790M/C797S) cells. Kind of data set: Inhibition of proliferation of BAF3-EGFR (Del19/T790M/C797S) cells, CCK-8. Type of data set: cell-based. The conditions noted are these: Ba/F3 EGFR-Del19/T790M/C797S, 72 h, read-out: BAF3(EGFR T790M Del19 C797S) cell inhibitory activity IC50. The method, then:
A flask of BAF3-EGFR (del19/T790M/C797S) cells in the logarithmic growth phase and good conditions was taken, and the cells were collected and added to a centrifuge tube. 20 μL of cells were taken and counted, and the required number of cells (mL) was pipetted and centrifuged at 1200 rpm for 3 min. The supernatant was discarded, and an appropriate amount of plating medium (RPMI medium+10% FBS) was added to adjust the cell density to 1.0×10^5 cells/mL. The cells were seeded on a 96-well plate at 100 μL/well using a multi-channel pipette and cultured in a cell incubator at 37° C., 5% CO2 with saturated humidity. After overnight incubation, compounds were loaded using a nanoliter pipettor, 2 duplicate wells were set for each concentration, and cells without compound added were used as negative controls.
(§1) Inhibition rate (%)=(mean value of negative control group-mean value of experimental group)/(mean value of negative control group−mean value of blank group)×100%.
(§2) A dose-response curve was fitted by four-parameter analysis, with the logarithm of compound concentration serving as abscissa and inhibition rate serving as ordinate, such that IC50 was calculated.

Data set [3] has as its system PC-9 EGFR-Del19-T790M-C797S cells. The data set can be described thus: Inhibition of proliferation of PC-9-EGFR (Del19 T790M C797S) cells, CCK-8. The following applies: 72 h, read-out: PC-9-EGFR (Del19 T790M C797S) cell inhibitory activity IC50. Type of data set: cell-based. The method, then: PC-9 EGFR-Del19-T790M-C797S cells in the logarithmic growth phase and good conditions were taken, washed with PBS, digested with pancreatin, terminated with a complete medium, collected and added to a centrifuge tube, adjusted to a cell density of 2×10^4 cells/mL, and seeded in a 96-well plate (100 μL/well). Meanwhile, compounds were loaded using a nanoliter pipettor resulting in the final concentrations of the compounds of 1000 nM-0.06 nM, and a control was set, replicate wells for each concentration. After 72 h of incubation in the cell incubator, the assay reagent CCK-8 (manufacturer: Dojindo Laboratories, Beijing; 10 μL/well) was added. After 2 h of incubation in the cell incubator, absorbance was measured at 450 nm on a PerkinElmer Envision microplate reader, and the inhibition rate was calculated.
as §1, §2

Data set [4] in a line: In vivo pharmacokinetics in ICR mice. The conditions noted are these: for AUC(0-t): read-out: AUC(0-t); for MRT last: read-out: MRT(0-t); for half-life: read-out: T½ (converted); for Cmax: read-out: Cmax; for Tmax: read-out: Tmax. The method, then: The animals to be tested (ICR mice) were fasted for 12 h before administration and food was provided 4 h after administration, and water was freely drunk before and after the experiment and during the experiment.
After intragastric administration, about 0.1 mL of blood was collected from the orbit at 0 min, 15 min, 30 min, 1 h, 2 h, 4 h, 6 h, 8 h, 10 h, and 24 h. After anticoagulation with EDTA-K2, blood samples were transferred to a centrifuge within 30 min, and centrifuged at 4000 rpm for 10 min at 4° C. to separate the plasma. All the plasma samples were collected and immediately stored at −20° C. for testing.
300 μL of acetonitrile solution containing an internal standard ([…] diazepam) was added to 20 μL of the plasma sample to be tested and a standard curve sample. The mixture was shaken and homogeneously mixed for 5 min, and centrifuged at 12,000 rpm for 10 min. 70 μL of supernatant was taken and diluted with 70 μL of ultrapure water. After being mixed well, 2 μL of the resulting sample was subjected to LC/MS/MS, and a chromatogram was recorded.

Data set [5] is described as follows: In vitro stability in liver microsomes. Type of data set: in vitro ADME. The conditions noted are these: Human liver microsome. The method, then: 300 μL of the final incubation system contains 30 μL of liver microsomes (protein concentration: 0.15 mg/mL), 30 μL of NADPH+MgCl2, 3 μL of the test compound (in acetonitrile), and 237 μL of PBS buffer (pH 7.4). The proportion of the organic solvent (acetonitrile) was 1%. Samples were prepared in duplicate of 0.3 mL for each species (e.g., human or mouse liver microsomes). Tubes each containing 270 μL of a mixed solution of substrate and enzyme […] were pre-incubated at 37° C. for 5 min. 30 μL of NADPH+MgCl2 was added and the mixture was mixed. 50 μL of the mixture was taken at 0 min, 15 min, 30 min, and 60 min, and 300 μL of glacial acetonitrile containing an internal standard was added to terminate the reaction.
50 μL of the incubated sample was added with 300 μL of glacial acetonitrile containing an internal standard (20 ng/mL diazepam) for precipitation. The mixture was vortexed for 5 min, and centrifuged (12,000 rpm, 4° C.) for 10 min. 75 μL of supernatant was taken and diluted with 75 μL of ultrapure water. After being homogeneously mixed, 0.5 μL of the resulting sample was injected for analysis.
A general note: Liver microsomes are vesicles of endoplasmic reticulum, rich in cytochrome P450 enzymes.

Data set [6] has as its target EGFR (d746-750 (d19)/T790M) (Homo sapiens (Human), UniProt P00533, DEL746-750/T790M). The data set can be described thus: Inhibitory activity for EGFR (d746-750 (d19)/T790M) kinase. Type of data set: biochemical. The conditions noted are these: ATP 5 μM. Put shortly:
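Recombinant EGFR d746-750/T790M (0.003 ng/μL final) preincubated 30 min with compound (10 to 0.0024 nM, 4-fold steps), then 5 μM ATP and 0.1 μM ULight-poly GT added for 2 h at room temperature. EDTA stop, Eu-anti-phosphotyrosine TR-FRET read (665 nm); IC50 by four-parameter fit.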

The target of data set [7] is EGFR (d746-750/T790M/C797S) (Homo sapiens (Human), UniProt P00533, C797S/DEL746-750/T790M). Kind of data set: Inhibitory activity for EGFR (d746-750/T790M/C797S) kinase. It counts as biochemical. The following applies: ATP 5 μM; read-out: EGFR(d19/T790M/C797S) (IC50). An outline of the steps: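 EGFR d746-750/T790M/C797S (0.03 ng/μL final) preincubated 30 min with compound (10 nM–0.0024 nM, 4-fold, 7 points). Reaction with 5 μM ATP and 0.1 μM ULight-poly GT, 2 h at room temperature; EDTA stop, Eu-anti-phosphotyrosine TR-FRET read at 665 nm, IC50 by four-parameter fit.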

The mark [8] stands for this setting: mouse, plasma, PO, 10 mg/kg intragastric.

pIC50: −log10 of the molar value. Where two headings read alike, the source gives them in different places.

Chain of EGFR (d746-750/T790M/C797S) (P00533 other isoform, or with tags, fused parts or gaps T790M/C797S/del 1-694/del 746-750 limits assumed): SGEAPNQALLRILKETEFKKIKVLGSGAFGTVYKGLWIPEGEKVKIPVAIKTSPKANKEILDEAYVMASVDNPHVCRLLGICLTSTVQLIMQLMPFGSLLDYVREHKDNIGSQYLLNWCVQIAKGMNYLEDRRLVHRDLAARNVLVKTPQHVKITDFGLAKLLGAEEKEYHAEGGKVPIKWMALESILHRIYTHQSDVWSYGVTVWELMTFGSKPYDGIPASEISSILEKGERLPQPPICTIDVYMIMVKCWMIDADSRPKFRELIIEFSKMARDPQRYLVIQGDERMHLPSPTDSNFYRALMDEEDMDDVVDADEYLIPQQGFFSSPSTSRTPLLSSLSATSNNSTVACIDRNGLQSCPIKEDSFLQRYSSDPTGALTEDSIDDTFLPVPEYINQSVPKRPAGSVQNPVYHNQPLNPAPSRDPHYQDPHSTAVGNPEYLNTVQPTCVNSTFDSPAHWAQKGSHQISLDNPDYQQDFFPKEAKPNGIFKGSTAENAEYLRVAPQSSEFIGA
Chain of EGFR (d746-750 (d19)/T790M) (P00533 other isoform, or with tags, fused parts or gaps T790M/del 1-668/del 746-750 limits assumed): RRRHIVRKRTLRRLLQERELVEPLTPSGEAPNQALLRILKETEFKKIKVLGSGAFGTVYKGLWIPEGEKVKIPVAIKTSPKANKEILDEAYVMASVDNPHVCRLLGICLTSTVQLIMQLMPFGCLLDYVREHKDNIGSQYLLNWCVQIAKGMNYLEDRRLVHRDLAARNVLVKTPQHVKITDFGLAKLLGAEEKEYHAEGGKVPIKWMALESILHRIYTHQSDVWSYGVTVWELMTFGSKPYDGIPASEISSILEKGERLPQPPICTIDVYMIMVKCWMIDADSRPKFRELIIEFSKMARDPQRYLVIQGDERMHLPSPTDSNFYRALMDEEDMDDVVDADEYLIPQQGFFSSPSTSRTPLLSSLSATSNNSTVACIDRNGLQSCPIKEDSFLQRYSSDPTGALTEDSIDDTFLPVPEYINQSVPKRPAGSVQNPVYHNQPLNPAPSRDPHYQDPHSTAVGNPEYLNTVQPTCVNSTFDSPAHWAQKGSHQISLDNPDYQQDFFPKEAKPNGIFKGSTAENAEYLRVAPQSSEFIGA

By AUC(0-inf) is commonly meant the area under the concentration-time curve extrapolated to infinity. Usually AUC(0-t) stands for exposure summed from dosing to a finite time, without extrapolation to infinity. What is called bioavailability is the share of a dose that reaches the circulation, judged against a reference dose that is usually intravenous. In general, Cmax refers to the maximum level reached in the sampled fluid or tissue. For orientation: Tmax means the time from dosing to the highest level. For `Cc1cc2cc(n1)-c1cnn(C)c1OCCC[C@@H](C1CC1)CN1/C(=N/C2=O)Nc2cc(NCCCN3CCOCC3)ccc21` [Example 74], in data set [1], the pIC50 was > 8.30. Also, the pIC50 in data set [2] was > 9.00. In addition, the pIC50 in data set [3] was > 7.30. The compound also showed a CLz in data set [4] (IV) of 70.5 mL/min/kg. In data set [4] (mouse, plasma, 1 mg/kg, IV), the AUC(0-inf) came out at 236 ng·h/mL, the AUC(0-t) stood at 233 ng·h/mL, the MRT last was found to be 1.35 h and the half-life was 1.84 h. Further, the bioavailability in data set [4] (mouse, plasma, 10 mg/kg, PO vs IV) was found to be 35.4%. Moreover, in data set [4] (setting [8]), the AUC(0-inf) turned out to be 830 ng·h/mL, the AUC(0-t) came to 824 ng·h/mL, the Cmax turned out to be 97.6 ng/mL and the MRT last was 6.42 h. Further, in data set [4] (setting [8]), the Tmax was 0.5 h and the half-life is 3.18 h.
`Cc1cc2cc(n1)-c1cnn(C)c1OCCC[C@@H](C1CC1)CN1/C(=N/C2=O)Nc2cc(NCCCN3CCCCC3)ccc21` [Example 71]: the “Stability in liver microsomes (residual %, T = 60 min)” value (shortened to “Stability … (residual %, T = 60 min)”) in data set [5] came out at 82.82%. Further, in data set [4] (setting [8]), the AUC(0-inf) is 1680 ng·h/mL, the AUC(0-t) turned out to be 1620 ng·h/mL, the Cmax stood at 138 ng/mL and the MRT last worked out at 7.85 h. Moreover, in data set [4] (setting [8]), the Tmax is 6 h and the half-life is 4.5 h.
For the compound `CCN1CCC(Nc2ccc3c(c2)N2C[C@H](C4CC4)CCCOc4c(cnn4C)-c4cc(cc(C)n4)C(=O)/N=C/2N3)CC1` [Example 55], the pIC50 in data set [6] is 10.85; in data set [7], 10.70; in data set [1], > 8.30; in data set [2], > 9.00; in data set [3] it was > 7.30.
Turning to `Cc1cc2cc(n1)-c1cnn(C)c1OCCC[C@@H](C1CC1)CN1/C(=N/C2=O)Nc2cc(N(C)C3COC3)ccc21` [Example 41], the pIC50 in data set [6] was 11.05; in data set [7], 10.80; in data set [1] it was > 8.30; in data set [2] it was > 9.00; in data set [3], > 7.30.
Take `[2H]C([2H])([2H])N(C[C@H](C)Nc1ccc2c(c1)N/C1=N/C(=O)c3cc(C)nc(c3)-c3cnn(C)c3OCCC[C@@H](C3CC3)CN12)C([2H])([2H])[2H]` [Example 124]: the pIC50 in data set [7] was 9.92. In data set [5], the “Stability … (residual %, T = 60 min)” value was 77.10%.
For `Cc1cc2cc(n1)-c1cnn(C)c1OCCC[C@@H](C1CC1)CN1/C(=N/C2=O)Nc2cc(N[C@@H](C)CN(C)C)ccc21` [Example 68], in data set [5], the “Stability … (residual %, T = 60 min)” value is listed as 78.57%. In data set [4] (setting [8]), the AUC(0-inf) was 1960 ng·h/mL, the AUC(0-t) was determined as 1950 ng·h/mL, the Cmax stood at 148 ng/mL and the MRT last was found to be 7.54 h. In addition, in data set [4] (setting [8]), the Tmax turned out to be 4 h and the half-life was 3.04 h.
`Cc1cc2cc(n1)-c1cnn(C)c1OCCC[C@@H](C1CC1)CN1/C(=N/C2=O)Nc2ccc(NC(C)CN(C)C)cc21` (stereo partly drawn) [Example 63]: the pIC50 in data set [6] is 11.10; in data set [7], 10.89; in data set [1] it was > 8.30; in data set [2] it was > 9.00; in data set [3], > 7.30.
Taken in the same sequence, the figures for `Cc1cc2cc(n1)-c1cnn(C)c1OCCC[C@@H](C1CC1)CN1/C(=N/C2=O)Nc2cc(NCC3(C)COC3)ccc21` [Example 40] were 10.85, 10.68, > 8.30, > 9.00 and > 7.30.
With `Cc1cc2cc(n1)-c1cnn(C)c1OCCC[C@@H](C1CC1)CN1/C(=N/C2=O)Nc2ccc(NCCCN3CCOCC3)cc21` [Example 81], the pIC50 in data set [6] is 10.96; in data set [7], 10.43; in data set [1] it was > 8.30; in data set [2], > 9.00; in data set [3], > 7.30.
Taken in the same sequence, the figures for `Cc1cc2cc(n1)-c1cnn(C)c1OCCC[C@@H](C1CC1)CN1/C(=N/C2=O)Nc2ccc(NCCCN3CCCCC3)cc21` [Example 80] were 11.00, 10.46, > 8.30, > 9.00 and > 7.30.
With `Cc1cc2cc(n1)-c1cnn(C)c1OCCC[C@@H](C1CC1)CN1/C(=N/C2=O)Nc2cc(NC(C)C3COC3)ccc21` (stereo partly drawn) [Example 37], the pIC50 in data set [6] is 10.89; in data set [7], 10.66; in data set [1], > 8.30; in data set [2], > 9.00; in data set [3], > 7.30.
On to `Cc1cc2cc(n1)-c1cnn(C)c1OCCC[C@@H](C1CC1)CN1/C(=N/C2=O)Nc2cc(NC(C)C3(C)COC3)ccc21` (stereo partly drawn) [Example 89], for which the pIC50 in data set [6] was 9.29; in data set [7], 9.44; in data set [1] it was > 8.30; in data set [2], > 9.00; in data set [3], > 7.30.
With `Cc1cc2cc(n1)-c1cnn(C)c1OCCC[C@@H](C1CC1)CN1/C(=N/C2=O)Nc2ccc(NC3CCN(C(C)C)CC3)cc21` [Example 54], the pIC50 is 10.89 in data set [6]; 10.68 in data set [7]; > 8.30 in data set [1]; > 9.00 in data set [2]; > 7.30 in data set [3].
Taken in the same sequence, the figures for `Cc1cc2cc(n1)-c1cnn(C)c1OCCC[C@@H](C1CC1)CN1/C(=N/C2=O)Nc2ccc(NCCN3CCCC3)cc21` [Example 82] were 11.07, 10.70, > 8.30, > 9.00 and > 7.30.
